These compounds were tested against T1, Ba/F3 cell EGFR Exon20 ins NPH (Homo sapiens, UniProt P00533, INS773NPH) (assay: Ba/F3 cell proliferation suppression, EGFR Exon20 ins NPH). Details: GI50 class; Ba/F3 cell line with NPH inserted at Exon20 of EGFR; 72 hours.
T1 construct: expressed in transfected cells; host or cells: Ba/F3
Assay type: cell-based
How it was run: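 Cells (3000–5000/well) plated 24 h before compound, 12-point 3-fold dilutions at 0.3 nM to 50 um final; Ba/F3 lines grown with 5 ng/ml IL-3. Viability by CellTiter-Glo luminescence after 72 h, growth ratio vs control, GI50 from curves; triplicate.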

Ba/F3 (NPH) Activity, A (GI50 < 50 nM):
C=CC(=O)Nc1cc(Nc2cc(N3OCC[C@@H]3c3cc(F)cc(F)c3)ncn2)c(OC)cc1N1CCN(C)C[C@H]1C [compound 918, N-(5-((6-((R)-3-(3,5-difluorophenyl)isoxazolidine-2-yl)pyrimidine-4-yl)amino)-2-((R)-2,4-dimethylpiperazine-1-yl)-4-methoxyphenyl) acrylamide]
C=CC(=O)Nc1cc(Nc2cc(N3OCC[C@@H]3c3c(F)ccc(F)c3Cl)ncn2)c(OC)cc1N1CCC(N2CCN(C3CC3)[C@H](C)C2)CC1 [compound 935, N-(5-((6-((R)-3-(2-chloro-3,6-difluorophenyl)isoxazolidine-2-yl)pyrimidine-4-yl)amino)-2-(4-((R)-4-cyclopropyl-3-methylpiperazine-1-yl)piperidine-1-yl)-4-methoxyphenyl) acrylamide]
C=CC(=O)Nc1cc(Nc2cc(N3OCC[C@@H]3c3cccc(Cl)c3)ncn2)c(OC)cc1N1CCC(N2CC[C@@H](N(C)C)C2)CC1 [compound 413, N-(5-((6-((R)-3-(3-chlorophenyl)isoxazolidine-2-yl)pyrimidine-4-yl)amino)-2-(4-((R)-3-(dimethylamino)pyrolidine-1-yl)piperidine-1-yl)-4-methoxyphenyl) acrylamide]
C=CC(=O)Nc1cc(Nc2cc(N3OCC[C@@H]3c3cc(F)ccc3F)ncn2)c(OC)cc1N1CCC(N2CCCN(C3CC3)CC2)CC1 [compound 829, N-(2-(4-(4-cyclopropyl-1,4-diazepane-1-yl)piperidine-1-yl)-5-((6-((R)-3-(2,5-difluorophenyl)isoxazolidine-2-yl)pyrimidine-4-yl)amino)-4-methoxyphenyl) acrylamide]
C=CC(=O)Nc1cc(Nc2cc(N3OCC[C@@H]3Cc3cccc(F)c3C)ncn2)c(OC)cc1N1CCN(C2CC2)CC1 [compound 1038, N-(2-(4-cyclopropylpiperazine-1-yl)-5-((6-((S)-3-(3-fluoro-2-methylbenzyl)isoxazolidine-2-yl)pyrimidine-4-yl)amino)-4-methoxyphenyl) acrylamide]
C=CC(=O)Nc1cc(Nc2cc(N3OCC[C@@H]3c3cc(F)ccc3F)ncn2)c(OC)cc1N1CCC(N2C[C@H](C)N(C3CC3)C[C@H]2C)CC1 [Example 173, N-(2-(4-((2R,5S)-4-cyclopropyl-2,5-dimethylpiperazine-1-yl)piperidine-1-yl)-5-((6-((R)-3-(2,5-difluorophenyl)isoxazolidine-2-yl)pyrimidine-4-yl)amino)-4-methoxyphenyl) acrylamide]
C=CC(=O)Nc1cc(Nc2cc(N3OCC[C@@H]3Cc3ccccc3)ncn2)c(OC)cc1N1CCN(C2COC2)CC1 [compound 958, N-(5-((6-((S)-3-benzylisoxazolidine-2-yl)pyrimidine-4-yl)amino)-4-methoxy-2-(4-(oxetane-3-yl)piperazine-1-yl)phenyl)acrylamide]
C=CC(=O)Nc1cc(Nc2cc(N3OCC[C@@H]3c3ccc(Cl)c(F)c3)ncn2)c(OC)cc1N1C[C@@H]2C[C@H]1CO2 [compound 862, N-(2-((1S,4S)-2-oxa-5-azabicyclo [2.2.1]heptane-5-yl)-5-((6-((R)-3-(4-chloro-3-fluorophenyl)isoxazolidine-2-yl)pyrimidine-4-yl)amino)-4-methoxyphenyl) acrylamide]
C=CC(=O)Nc1cc(Nc2cc(N3OCC[C@@H]3Cc3cccc(F)c3C)ncn2)c(OC)cc1N1CCC(N2CCN(C3CC3)CC2)CC1 [compound 999, N-(2-(4-(4-cyclopropylpiperazine-1-yl)piperidine-1-yl)-5-((6-((S)-3-(3-fluoro-2-methylbenzyl)isoxazolidine-2-yl)pyrimidine-4-yl)amino)-4-methoxyphenyl) acrylamide]
C=CC(=O)Nc1cc(Nc2cc(N3OCC[C@@H]3c3cccc(F)c3F)ncn2)c(OC)cc1N1CCC(N2CCN(C(C)=O)CC2)CC1 [compound 339, N-(2-(4-(4-acetylpiperazine-1-yl)piperidine-1-yl)-5-((6-((R)-3-(2,3-difluorophenyl)isoxazolidine-2-yl)pyrimidine-4-yl)amino)-4-methoxyphenyl) acrylamide]
C=CC(=O)Nc1cc(Nc2cc(N3OCC[C@@H]3c3ccc(F)c(F)c3F)ncn2)c(OC)cc1N1CCN(C)CC1 [compound 572, N-(4-methoxy-2-(4-methylpiperazine-1-yl)-5-((6-((R)-3-(2,3,4-trifluorophenyl)isoxazolidine-2-yl)pyrimidine-4-yl)amino)phenyl) acrylamide]
C=CC(=O)Nc1cc(Nc2cc(N3OCC[C@@H]3c3cccc(Cl)c3)ncn2)c(OC)cc1N1CCC(N2CCN(C3COC3)CC2)CC1 [Example 199, N-(5-((6-((R)-3-(3-chlorophenyl)isoxazolidine-2-yl)pyrimidine-4-yl)amino)-4-methoxy-2-(4-(4-(oxetane-3-yl)piperazine-1-yl)piperidine-1-yl)phenyl)acrylamide]
C=CC(=O)Nc1cc(Nc2cc(N3OCC[C@@H]3c3ccc(F)c(Cl)c3)ncn2)c(OC)cc1N1CCN(C(C)C)CC1 [compound 724, N-(5-((6-((R)-3-(3-chloro-4-fluorophenyl)isoxazolidine-2-yl)pyrimidine-4-yl)amino)-2-(4-isopropylpiperazine-1-yl)-4-methoxyphenyl) acrylamide]
C=CC(=O)Nc1cc(Nc2cc(N3OCC[C@@H]3c3ccc(Cl)cc3F)ncn2)c(OC)cc1N1CCC(N2C[C@@H](C)O[C@@H](C)C2)CC1 [compound 374, N-(5-((6-((R)-3-(4-chloro-2-fluorophenyl)isoxazolidine-2-yl)pyrimidine-4-yl)amino)-2-(4-((2S,6R)-2,6-dimethylmorpholino)piperidine-1-yl)-4-methoxyphenyl) acrylamide]
C=CC(=O)Nc1cc(Nc2cc(N3OCC[C@@H]3c3cccc(Cl)c3Cl)ncn2)c(OC)cc1N1CCN(C2CC2)CC1 [compound 518, N-(2-(4-cyclopropylpiperazine-1-yl)-5-((6-((R)-3-(2,3-dichlorophenyl)isoxazolidine-2-yl)pyrimidine-4-yl)amino)-4-methoxyphenyl) acrylamide]
C=CC(=O)Nc1cc(Nc2cc(N3OCC[C@@H]3c3cccc(C(F)(F)F)c3)ncn2)c(OC)cc1N1CCC(N2C[C@H]3C[C@@H]2CO3)CC1 [compound 943, N-(2-(4-((1R,4R)-2-oxa-5-azabicyclo [2.2.1]heptane-5-yl)piperidine-1-yl)-4-methoxy-5-((6-((R)-3-(3-(trifluoromethyl)phenyl)isoxazolidine-2-yl)pyrimidine-4-yl)amino)phenyl) acrylamide]

— patent publication US12157730B2, “Heteroaryl derivative, method for producing same, and pharmaceutical composition comprising same as effective component” (VORONOI INC., priority 2019, dated 2024)
